Measurements reported in patent publication US8404738B2 (Hoffmann-La Roche Inc., priority 2011, dated 2013).

Assays:
[1] = test system: p21 promoter-luciferase construct; test: p21 reporter gene induction (HeLa cells, p21 promoter-luciferase construct); settings: for p21 RP3: relative gene level of p21 compared to MS275 at 3 μM; for p21 RP10: relative level of p21 compared to MS275 at 10 μM; for p21 RP30: relative level of p21 compared to MS275 at 30 μM;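 as to all read-outs here: transfected HeLa cells exposed to compound for 15 h, luciferase luminescence read from lysates, p21 promoter lacks p53 site, proxy for cellular HDAC1/2/3 inhibition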
recombinant human HDAC8 = biological target: T1, recombinant human HDAC8 (Homo sapiens, UniProt Q9BY41); test: HDAC8 inhibition: recombinant HDAC8 fluorometric assay; format: biochemical; settings: recombinant human HDAC8, substrate Ac-Arg-His-Lys-Lys(ε-acetyl)-AMC; read-out: HDAC8 IC50
T1 construct: made in house; host or cells: insect cells
T1 sequence (Q9BY41 1-377): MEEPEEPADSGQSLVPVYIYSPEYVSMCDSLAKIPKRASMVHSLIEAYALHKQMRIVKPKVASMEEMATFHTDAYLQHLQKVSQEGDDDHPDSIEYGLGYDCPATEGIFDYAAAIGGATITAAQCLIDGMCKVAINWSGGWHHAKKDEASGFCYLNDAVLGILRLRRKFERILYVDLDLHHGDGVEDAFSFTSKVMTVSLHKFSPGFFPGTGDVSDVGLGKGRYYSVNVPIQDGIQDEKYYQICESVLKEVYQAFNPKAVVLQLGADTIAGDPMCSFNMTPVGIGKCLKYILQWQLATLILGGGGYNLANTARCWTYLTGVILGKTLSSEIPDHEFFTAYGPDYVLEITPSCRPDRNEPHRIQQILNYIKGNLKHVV
Outline: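 Recombinant human HDAC8 from insect cells was preincubated with compound for 15 min at rt, then given Ac-Arg-His-Lys-Lys(ε-acetyl)-AMC substrate for 30 min at rt. IC50 came from normalized percent inhibition with curve fitting.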

HDAC6 = biological target: T2, HDAC6 (Homo sapiens, UniProt Q9UBN7); test: Tubulin acetylation cytoblot assay (A549 cells); format: cell-based; settings: 17-18 h incubation, tubulin acetylation as marker of HDAC6 inhibition, read-out: Tub-Ac EC50
T2 construct: endogenous in cells; host or cells: A549 cells
T2 sequence (Q9UBN7 1-1215): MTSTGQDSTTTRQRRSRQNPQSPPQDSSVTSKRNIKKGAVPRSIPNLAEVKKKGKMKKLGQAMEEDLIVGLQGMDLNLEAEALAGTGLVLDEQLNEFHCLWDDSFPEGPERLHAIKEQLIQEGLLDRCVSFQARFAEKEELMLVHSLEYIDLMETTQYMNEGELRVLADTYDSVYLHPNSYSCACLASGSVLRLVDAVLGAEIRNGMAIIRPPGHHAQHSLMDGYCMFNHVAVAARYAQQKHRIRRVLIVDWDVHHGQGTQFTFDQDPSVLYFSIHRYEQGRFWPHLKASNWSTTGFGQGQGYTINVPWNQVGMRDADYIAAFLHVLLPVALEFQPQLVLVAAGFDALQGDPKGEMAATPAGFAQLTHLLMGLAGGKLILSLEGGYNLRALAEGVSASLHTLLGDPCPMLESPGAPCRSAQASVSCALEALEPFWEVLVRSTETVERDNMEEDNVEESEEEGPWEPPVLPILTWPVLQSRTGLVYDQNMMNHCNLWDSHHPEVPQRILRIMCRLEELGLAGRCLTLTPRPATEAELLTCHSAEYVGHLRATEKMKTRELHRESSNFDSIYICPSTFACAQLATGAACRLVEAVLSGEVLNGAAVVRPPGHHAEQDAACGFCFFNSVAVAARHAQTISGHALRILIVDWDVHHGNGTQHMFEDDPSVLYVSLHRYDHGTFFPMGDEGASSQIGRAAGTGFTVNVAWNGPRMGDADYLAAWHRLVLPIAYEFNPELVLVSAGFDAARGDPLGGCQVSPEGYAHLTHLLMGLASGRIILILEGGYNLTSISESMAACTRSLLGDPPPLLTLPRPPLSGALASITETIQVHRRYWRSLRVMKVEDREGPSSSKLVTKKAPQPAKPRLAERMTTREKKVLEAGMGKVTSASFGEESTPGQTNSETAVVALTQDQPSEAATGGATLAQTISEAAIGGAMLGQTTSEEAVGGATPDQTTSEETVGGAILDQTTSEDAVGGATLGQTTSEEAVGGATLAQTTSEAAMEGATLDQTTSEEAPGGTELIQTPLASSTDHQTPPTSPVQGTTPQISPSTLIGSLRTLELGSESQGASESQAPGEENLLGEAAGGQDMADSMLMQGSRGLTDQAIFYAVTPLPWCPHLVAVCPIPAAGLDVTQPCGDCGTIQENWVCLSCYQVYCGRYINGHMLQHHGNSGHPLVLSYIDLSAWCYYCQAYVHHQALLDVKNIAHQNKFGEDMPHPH
Outline: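 Cells were exposed to compound for 17-18 h, then fixed with formaldehyde and permeabilized with cold MeOH. They were probed for 4 h at 4° C with anti-acetylated tubulin plus HRP anti-mouse IgG (each 1:750), and read by ECL luminescence. EC50 values came from curves normalized to top and bottom controls.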

SMILES	p21 RP3 [1]	p21 RP10 [1]	p21 RP30 [1]	IC50 (recombinant human HDAC8) [µM]	EC50 (HDAC6) [µM]
O=C(NO)c1ccc(NC2CCN(C3(c4ccccc4)CCCC3)C2=O)cc1 (stereo not shown) [Example 55, N-Hydroxy-4-[2-oxo-1-(1-phenyl-cyclopentyl)-pyrrolidin-3-ylamino]-benzamide]	0.43	0.20	0.50	0.82	4.75
O=C(NO)c1ccc(NC2CCN(C3(c4ccccc4)CCCCC3)C2=O)cc1 (stereo not shown) [Example 56, N-Hydroxy-4-[2-oxo-1-(1-phenyl-cyclohexyl)-pyrrolidin-3-ylamino]-benzamide]	0.37	0.07	0.14	1.11	2.82
CC1(Nc2ccc(C(=O)NO)cc2)CCN(c2ccccc2)C1=O (stereo not shown) [Example 57, N-Hydroxy-4-(3-methyl-2-oxo-1-phenyl-pyrrolidin-3-ylamino)-benzamide]	0.05	0.03	0.01	2.97	2.64
CC1(Nc2ccc(C(=O)NO)cc2)CCN(c2cccc(F)c2)C1=O (stereo not shown) [Example 58, 4-[1-(3-Fluoro-phenyl)-3-methyl-2-oxo-pyrrolidin-3-ylamino]-N-hydroxy-benzamide]	0.50	0.13	0.07	0.91	1
CC1(Nc2ccc(C(=O)NO)cc2)CCN(c2cccc(Cl)c2)C1=O (stereo not shown) [Example 59, 4-[1-(3-Chloro-phenyl)-3-methyl-2-oxo-pyrrolidin-3-ylamino]-N-hydroxy-benzamide]	0.23	0.22	0.24	0.16	0.3
CC1(Nc2ccc(C(=O)NO)cc2)CCN(c2cnc3ccccc3c2)C1=O (stereo not shown) [Example 61, N-Hydroxy-4-(3-methyl-2-oxo-1-quinolin-3-yl-pyrrolidin-3-ylamino)-benzamide]	0.46	0.09	0.17	1.42	8.25
CC1(Nc2ccc(C(=O)NO)cc2)CCN(c2cccc3cccnc23)C1=O (stereo not shown) [Example 62, N-Hydroxy-4-(3-methyl-2-oxo-1-quinolin-8-yl-pyrrolidin-3-ylamino)-benzamide]	0.55	0.11	0.20	0.71	1.93
CC1(Nc2ccc(C(=O)NO)cc2)CCN(c2ccc3ncccc3c2)C1=O (stereo not shown) [Example 63, N-Hydroxy-4-(3-methyl-2-oxo-1-quinolin-6-yl-pyrrolidin-3-ylamino)-benzamide]	0.47	0.15	0.22	0.89	0.36
CC1(Nc2ccc(C(=O)NO)cc2)CCN(C(C)(C)c2ccccc2)C1=O (stereo not shown) [Example 64, N-Hydroxy-4-[3-methyl-1-(1-methyl-1-phenyl-ethyl)-2-oxo-pyrrolidin-3-ylamino]-benzamide]	0.30	0.04	0.02	0.32	10.2
O=C(NO)c1ccc(NC2CCN(c3ccccc3)C2=O)cc1F (stereo not shown) [Example 66, 2-Fluoro-N-hydroxy-4-(2-oxo-1-phenyl-pyrrolidin-3-ylamino)-benzamide]	0.01	0.01	0.00	1.25	2.42
O=C(NO)c1ccc(NC2CCN(c3cccc(Cl)c3)C2=O)cc1F (stereo not shown) [Example 67, 4-[1-(3-Chloro-phenyl)-2-oxo-pyrrolidin-3-ylamino]-2-fluoro-N-hydroxy-benzamide]	0.40	0.17	0.02	2.12	6.23
O=C(NO)c1ccc(NC2CCN(c3ccccc3)C2=O)c(Cl)c1 (stereo not shown) [Example 69, 3-Chloro-N-hydroxy-4-(2-oxo-1-phenyl-pyrrolidin-3-ylamino)-benzamide]	0.36	0.15	−0.03	0.85	8.23
O=C(NO)c1ccc(NC2CC(=O)N(c3cccc(Cl)c3)C2)cc1 (stereo not shown) [Example 72, 4-[1-(3-Chloro-phenyl)-5-oxo-pyrrolidin-3-ylamino]-N-hydroxy-benzamide]	0.16	0.14	0.09	1.48	2.34
COc1cccc(N2CC(Nc3ccc(C(=O)NO)cc3)CC2=O)c1 (stereo not shown) [Example 74, N-Hydroxy-4-[1-(3-methoxy-phenyl)-5-oxo-pyrrolidin-3-ylamino]-benzamide]	−0.07	0.07	0.12	1.01	1.84
O=C(NO)c1ccc(NC2CC(=O)N(Cc3ccccc3)C2)cc1 (stereo not shown) [Example 75, 4-(1-Benzyl-5-oxo-pyrrolidin-3-ylamino)-N-hydroxy-benzamide]	0.19	0.07	0.11	0.86	4.56
CC1C(=O)N(c2ccc(Cl)cc2)CC1Nc1ccc(C(=O)NO)cc1 (stereo not shown) [Example 78, 4-[1-(4-Chloro-phenyl)-4-methyl-5-oxo-pyrrolidin-3-ylamino]-N-hydroxy-benzamide]	0.64	0.15	0.04	1.83	1.81
O=C(NO)c1ccc(NC2CCN(c3ccccc3)C2)cc1 (stereo not shown) [Example 79, N-Hydroxy-4-(1-phenyl-pyrrolidin-3-ylamino)-benzamide]	0.21	0.09	0.04	1.7	4.54
